The text below walks through data of article PMC6630718, “Discovery of Novel UV-Filters with Favorable Safety Profiles in the 5-Arylideneimidazolidine-2,4-dione Derivatives Group” (Molecules, 2019).

The nature of data set [1]: Ultraviolet spectroscopy in methanol solutions. Type of data set: physicochemical. The conditions noted are these: for Absorption Range: scan range 290–400 nm. How it is done:
Spectra with a scan range of 290–400 nm were recorded in 50 or 25 μM methanol solutions, in 1 cm path length, 1.5 mL quartz cuvettes on a U-2800 double beam spectrophotometer (Hitachi, Tokyo, Japan) controlled by UV Solution version 2.2 software. The molar extinction coefficient at maximum absorption (εmax) of tested compounds was determined in methanol as the slope of the linear regression of absorbance vs. concentration of tested compound (from 10 to 50 μM or 2.5 to 30 μM).

Data set [2] is described as follows: In vitro photoprotection study of 2% (w/w) macrogol formulations on PMMA plates. The conditions noted are these: for UVA PF / UVA/UVB Ratio / λc (critical wavelength): 2% (w/w) macrogol formulation F1 (Triacetin 4.8%); for SPFin vitro: 2% (w/w) macrogol formulation F1 (Tween 20, PEG-400, PEG-1500, Triacetin 4.8%). An excerpt: The composition of formulations and concentration of tested compounds were based on their limited solubility. N-monosubstituted compounds 2a–2e were insoluble at desirable concentrations in the typical solvents used in cosmetic formulations such as alcohols, triacetin, surfactants, and co-surfactants. To dissolve compounds 2a and 2b before incorporation to the formulation DMSO: Tween 20 (1:9 w/w) was used, for less soluble 2c–2e it was necessary to use DMSO alone as solvent. […] Thus the detailed composition of the formulations is as follows: F1–Tween 20 43.2%, PEG-400 25%, PEG-1500 25%, Triacetin 4.8%, tested compound 2%; F2–Tween 20 43.2%, PEG-400 25%, PEG-1500 25%, DMSO 4.8%, tested compound 2%; F3–PEG-400 25%, PEG-1500 25%, DMSO 48%, tested compound 2%. Considering the disadvantages of currently reported macrogol formulations and the low concentration achieved for the tested compounds (2%), we plan to work on cosmetic emulsions containing the most promising derivatives at higher concentrations as well as required excipients including preservatives, antioxidants, etc. This research will be carried out in the near future.
Tested compounds and commercial UV filters as reference standards were incorporated to a neutral macrogel formulation in the concentration of 2%. Prior to the incorporation, compounds 3a–3e and 4f–4h and reference UV-filters were dissolved in a triacetin:Tween 20 (1:9) solvent system. For compounds 2a–2e it was necessary to use DMSO. The final composition of the macrogol formulations is presented in the photoprotective activity section.
In vitro photoprotection study was performed according to EN ISO 24443:2012 [71] with slight modifications. Formulation with tested compound (32.5 mg) was applied on a polymethylmethacrylate plate (PMMA) with the application area 25 cm^2 and 5 µm roughness value to simulate the skin surface (Schonberg GmbH, Hamburg, Germany). As a reference a PMMA plate treated with approximately 15 µL of glycerin was used. Measurements were carried out by reflectance spectrophotometry with SPF-290AS Analyser (Solar Light Company, Glenside, PA, USA) equipped with integrating sphere controlled by WinSPF version X.X. software. For each sample two plates were prepared, absorbance measures were performed on 6 different positions of the plate from 290 to 400 nm with 1 nm steps. The results were expressed as an average of data from 12 scans.

Data set [3] in a line: In vitro stability in mouse liver microsomes. Type of data set: in vitro ADME. The conditions noted are these: mouse liver microsomes. How it is done: Mouse liver microsomes (MLMs) were used to investigate the phase I metabolism of selected compounds (2c, 2d, 3b, 4g, 5a) and the reference substance BP-2. Samples composed of test compound (20 µM), MLMs (0.8 mg/mL) and potassium phosphate buffer (100 mM, pH 7.4) were preincubated prior to addition of NADPH-regenerating system. NADPH-regenerating system contained NADP, glucose-6-phosphate, glucose-6-phosphate dehydrogenase and potassium phosphate buffer (100 mM, pH 7.4). Control incubations were performed in the absence of the NADPH-regenerating system and in case of esters (2c, 2d, 3b and 4g) without the mouse liver microsomes solution to determine spontaneous hydrolysis. Incubations were conducted at 37 °C for at least 15 min up to 60 min. The reactions were stopped by the addition of 250 μL ice-cold methanol containing internal standard PTX (20 μM). The mixture was then centrifuged. Supernatant analysis was performed using UPLC/MS (Waters Corporation). The assays were repeated two times. The in vitro half times (t1/2) for test compounds were determined from the slope of the linear regression of ln % parent compound remaining versus incubation time. The calculated t1/2 was incorporated into the following equation to obtain intrinsic clearance: (Clint) = (volume of incubation [µL]/ protein in the incubation [mg]) × 0.693 / t1/2 [74].
On the technique in general: Liver microsomes are a subcellular fraction often used to study metabolism.

Data set [4] can be described thus: Photostability in methanol solutions (solar light simulator). Format: physicochemical. The conditions noted are these: methanol solution; for % of initial AUC post-irradiation / λmax post-irradiation: 1h irradiation at 500 W/m2. On the set-up: λmax pre-irradiation: unit not given beside the values. How it is done:
(§1) The photostability evaluation of compounds was performed both in methanol solutions and in macrogol formulations. Irradiation of samples according to previous studies was conducted for 1 h at 500 W/m^2 (cumulative dose of ultraviolet radiation 218 kJ/m^2) with solar light simulator (Suntest CPS+, Atlas, Linsengericht, Germany) equipped with an optical filter cutting off wavelengths shorter than 290 nm and IR-block filter to neutralize thermal effects. The UV absorption spectrum of the samples were analysed post-irradiation and compared with pre-irradiation results. UPLC-MS/MS analyses were also performed.
(§2) Methanol solutions were tested at concentration 25 or 50 µM in quartz cuvettes with the PTFE stopper to prevent evaporation or leaking of the solvent. Macrogol formulations (2% w/w) were tested on PMMA plates (1.3 mg/cm^2). After post-irradiation measure of UV absorption, exposed and unexposed plates were washed with 5 mL of methanol, then mixtures were filtered and analysed by UPLC-MS/MS. All analyses were performed in duplicates.

Data set [5] can be described thus: Photostability in macrogol formulations on PMMA plates (solar light simulator). The settings on record: after 1 h irradiation at 500 W/m^2, formulation F1. Format: physicochemical. How it is done: After irradiation of thin layer of formulations applied on PMMA plates, their photoprotective parameters were determined and compared with the pre-irradiation results. The study gives an overview on functional photostability of the tested compounds. It is an important test, because the photostability of some compounds in low concentrated solutions may meaningfully differ from results obtained for higher concentrations used in sunscreen products. […] In the present study both UVB and UVA-absorbers were tested, so the changes in SPFin vitro, UVA PF and AUC after irradiation are taken into account as a measure of photostability.
as §1, §2

As for `COc1ccc(C(=O)CC(=O)c2ccc(C(C)(C)C)cc2)cc1` [Avobenzone, butyl methoxy-dibenzoylmethane, reference compound], in data set [1], the εmax was 36820 M⁻¹ cm⁻¹, the λmax came to 358 nm and the “Absorption Range” value is on record as 290–393 nm. Also, in data set [2], the “UVA PF” value was found to be 7.56 ± 0.19, the “UVA/UVB Ratio” value is 2.49 ± 0.03, the λc (critical wavelength) came to 381 nm and the SPFin vitro is recorded as 2.23 ± 0.03.
A word on the microsomal CLint: it is the capacity of the preparation to metabolise the compound, expressed as a volume cleared per time. Regarding `COc1ccc(/C=C2\NC(=O)NC2=O)cc1OC` [Compound 1e, (Z)-5-(3,4-Dimethoxybenzylidene)imidazolidine-2,4-dione], in data set [1], the εmax was 28440 M⁻¹ cm⁻¹, the λmax turned out to be 341 nm and the “Absorption Range” value is 290–384 nm. Moreover, in data set [3], the “Probable Transformation” value is given as “O-dealkylation”. Further, in data set [3] (mouse, pH 7.4, mouse liver microsomes 0.8 mg/mL, 20 µM compound, NADPH-regenerating system, 37 °C, read-out: t ½), the half-life at 20 µM turned out to be 61 min. Also, the microsomal CLint at 20 µM in data set [3] (mouse, pH 7.4, mouse liver microsomes, calculated from t1/2) is 14 µL/min/mg. Moreover, in data set [4], the λmax pre-irradiation is listed as 341, the “% of initial AUC post-irradiation” value was 95.38% and the λmax post-irradiation is on record as 346.
Take `CCCCC(CC)COC(=O)C=Cc1ccc(OC)cc1` (stereo not shown) [EHMC, ethylhexyl methoxycinnamate, reference compound]: in data set [5], the “% of Initial AUC” value is listed as 78.45%, the “% of Initial SPFin vitro” value is 80.83% and the “% of Initial UVA PF” value is listed as 88.76%. In addition, in data set [1], the εmax was determined as 22990 M⁻¹ cm⁻¹, the λmax is on record as 309 nm and the “Absorption Range” value was 290–339 nm. Moreover, in data set [2], the “UVA PF” value was 1.34 ± 0.05, the “UVA/UVB Ratio” value was found to be 0.05 ± 0.01, the λc (critical wavelength) came to 321 nm and the SPFin vitro is reported as 4.96 ± 0.33. Besides, in data set [4], the “decrease of AUC after irradiation” value is on record as 36.7%, the λmax pre-irradiation was 309, the “% of initial AUC post-irradiation” value is given as 63.26% and the λmax post-irradiation is listed as 307.
In the case of `CCCCC(CC)COC(=O)C(C#N)=C(c1ccccc1)c1ccccc1` (stereo not shown) [Octocrylene, octocrylene, reference compound], in data set [1], the εmax was found to be 13650 M⁻¹ cm⁻¹, the λmax is listed as 302 nm and the “Absorption Range” value is 290–349 nm. In data set [2], the “UVA PF” value was 1.20 ± 0.03, the “UVA/UVB Ratio” value is reported as 0.12 ± 0.01, the λc (critical wavelength) came to 327 nm and the SPFin vitro was 2.87 ± 0.16.
